One test concerns THRβ. Further details: method as in earlier work. The settings on record: fine-tuning set; BindingDB; read-out: potency on target (EC50 for THRβ); cited from earlier work.
The target of test [1] is T1, AT1 (Homo sapiens, UniProt P30556).
T1 construct: expressed in transfected cells
T1 sequence (P30556 1-359): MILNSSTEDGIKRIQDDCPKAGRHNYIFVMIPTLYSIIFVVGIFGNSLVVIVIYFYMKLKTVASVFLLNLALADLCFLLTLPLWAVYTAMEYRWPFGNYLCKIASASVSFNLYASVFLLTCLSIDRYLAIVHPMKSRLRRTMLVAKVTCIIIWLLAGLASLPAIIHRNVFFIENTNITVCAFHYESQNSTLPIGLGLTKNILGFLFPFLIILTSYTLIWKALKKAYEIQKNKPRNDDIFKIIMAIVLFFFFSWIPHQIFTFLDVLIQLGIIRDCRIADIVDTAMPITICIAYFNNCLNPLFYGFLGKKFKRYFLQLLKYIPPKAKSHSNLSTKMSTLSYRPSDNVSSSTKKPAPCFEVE
On the set-up: method as in earlier work. The settings on record: fine-tuning set; BindingDB; read-out: potency on target (IC50 for AT1); cited from earlier work.

Test [2] has as its target T1, AT1. Kind of test: IP-One assay for AT1 in stably transfected CHO-K1 cells. The class given is cell-based. The settings on record: cellular IP-One assay; mean, n ≥ 3. Here is the method:
(§1) CHO-K1 cells (DSMZ, ACC110) were cultured at 5% CO2 and 37 °C in full growth medium (Ham’s F-12 medium supplemented with 10% fetal calf serum (FCS), penicillin (100 U/mL) and streptomycin (100 µg/mL)). For harvesting cells were incubated with Trypsin/EDTA. IP-One assay for AT1 and FFAR1. To investigate the ligand dependent activation of the two GPCRs, inositol mono-phosphate (IP-One) accumulation was monitored using an HTRF based displacement assay between FRET acceptor coupled IP-One and Terbium cryptate coupled anti-IP-One antibody (IP-One assay kit, Cisbio Bioassays, Codolet, France). AT1: the IP-One assay for AT1 was performed according to the protocol published by Hernandez-Olmos et al.[66] In brief, by using the sleeping beauty method a CHO-K1 cell line was generated which stably overexpresses AT1 isoform 1 and GNA11 (G-protein subunit α 11) as well as cells only overexpressing the GNA11 without any GPCR, as control. Cells were seeded into white tissue culture 384-well plates (Greiner Bio-One, Frickenhausen, Germany) at 15,000 cells/well and incubated overnight at 37 °C and 5% CO2. […] Antagonist activity of compounds was measured with parallel stimulation with 10 nM [Val5]-Angiotensin II. […] A full dose-response curve with FFAR1 reference agonist GW9508 was measured as control for assay performance. […]

The next test has as its target T2, sEH (Homo sapiens, UniProt P34913).
T2 construct: His tag (inferred from HisTrap purification with imidazole elution); made in house; own inference
T2 sequence (P34913 1-555): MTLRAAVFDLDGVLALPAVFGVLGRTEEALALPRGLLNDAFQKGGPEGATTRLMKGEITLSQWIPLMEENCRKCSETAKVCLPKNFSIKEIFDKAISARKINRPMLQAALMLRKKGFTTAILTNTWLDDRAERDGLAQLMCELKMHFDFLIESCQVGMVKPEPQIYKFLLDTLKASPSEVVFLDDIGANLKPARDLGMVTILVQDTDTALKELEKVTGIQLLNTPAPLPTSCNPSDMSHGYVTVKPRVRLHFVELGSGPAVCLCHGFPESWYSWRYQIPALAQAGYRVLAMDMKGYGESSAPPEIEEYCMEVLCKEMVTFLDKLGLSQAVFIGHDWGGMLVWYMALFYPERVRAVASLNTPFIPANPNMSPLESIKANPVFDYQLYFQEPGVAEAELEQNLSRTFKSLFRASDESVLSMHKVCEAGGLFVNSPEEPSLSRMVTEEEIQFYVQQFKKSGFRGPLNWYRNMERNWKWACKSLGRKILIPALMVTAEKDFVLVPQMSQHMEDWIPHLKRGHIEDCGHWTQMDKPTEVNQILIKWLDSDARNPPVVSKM
Kind of test: sEH enzyme activity assay with fluorogenic substrate PHOME. Type of test: biochemical. The settings on record: mean, n ≥ 3. The text has this:
(§2) Compound 7 was originally designed with tert-butyloxy motif which was replaced by tert-butyl for improved chemical stability. The dual ligand candidates were characterized in functional assays for the targets of interest using cellular Gal4-hybrid reporter gene assays[43] to determine FXR, THRβ and PPARδ modulation and an enzyme activity assay[44] with the fluorogenic substrate PHOME to test sEH inhibition (Table 1). In vitro characterization of the CLM designed dual FXR/sEH modulators 1–3 confirmed engagement of both targets by all three compounds with sub-micromolar to low micromolar potencies. […] All designed PPARδ/sEH modulators (7–9) were confirmed as dual ligands of the intended targets. 7 emerged as remarkably potent sEH inhibitor endowed with micromolar PPARδ agonist activity.
Soluble epoxide hydrolase (sEH) was purified as described by Hahn et al.[68] and Lukin et al.[69], respectively. Protein expression was carried out in 500 ml ZYP5052 autoinduction medium containing Kanamycin (100 mg/L) with lactose uptake-dependent induction. The fermentation procedure started at 37 °C and 200 rpm until the OD600 reached approximately 1.0. Then the temperature was reduced to 16 °C. After 24–36 h the cells (OD600 ≈ 15.0) were harvested by centrifugation at 5000 × g (4 °C, 20 min). Pellets were resuspended in a resuspension buffer containing Tris (50 mM), NaCl (0.5 M) and MgCl2 (10 mM) at pH 8 and sonicated twice for 15 s on ice. The sonicated suspension was centrifuged (18,000 × g, 30 min, 4 °C) and the supernatant was ultracentrifuged (100,000 × g, 1 h 10 min, 4 °C). The ultracentrifugation supernatant was loaded on a 5 ml HisTrap® FF (GE Healthcare, München, Germany) column at a flow rate of 2 ml/min and washed with washing buffer containing Tris (50 mM), NaCl (0.5 M), MgCl2 (10 mM), imidazole (20 mM) and DTT (3 mM) at pH 8, and eluted at 120 mM imidazole. The fractions containing hsEH after SDS-PAGE fraction analysis were pooled. The identity of hsEH was confirmed by Western Blotting and hsEH hydrolase activity assay. The inhibitory potency of the compounds was determined using a fluorescence-based enzyme activity assay in which PHOME (3-phenyl-cyano(6-methoxy-2-naphthalenyl)methylester-2-oxiraneacetic acid) is metabolized by sEH hydrolase towards a fluorescent naphthalene aldehyde. Dilution series of the compounds were incubated for 30 min with recombinant sEH (final protein concentration 3 nM). Subsequently, the fluorogenic substrate PHOME at final concentration of 50 μM was added, and the fluorescence was measured every minute for 45 min using a Tecan plate reader (ex: 360 nm, em: 465 nm; bandwidth 35 nm). Inhibition in percent was plotted against the logarithmic test compound concentration and IC50-values were calculated using the “log(Inhibitor) vs. Response – Variable slope (four parameters)” equation in GraphPad Prism 7.

A further test addresses T3, FFAR1 (Homo sapiens, UniProt O14842).
T3 construct: expressed in transfected cells
Kind of test: IP-One assay for FFAR1 in stably transfected CHO-K1 cells. Type of test: cell-based. The settings on record: cellular IP-One assay; mean, n ≥ 3. The protocol: as §1

Test [3] concerns the target T4, PPARδ (Homo sapiens, UniProt Q03181).
T4 construct: expressed in transfected cells; host or cells: HEK293T
T4 sequence (Q03181 211-439 limits assumed): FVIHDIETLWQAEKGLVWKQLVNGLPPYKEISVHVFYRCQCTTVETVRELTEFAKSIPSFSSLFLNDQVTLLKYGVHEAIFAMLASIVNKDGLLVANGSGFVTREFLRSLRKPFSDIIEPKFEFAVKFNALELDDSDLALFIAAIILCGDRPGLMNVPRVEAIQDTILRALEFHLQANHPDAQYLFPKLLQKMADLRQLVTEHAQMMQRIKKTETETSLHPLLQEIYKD
Kind of test: Gal4-hybrid reporter gene assay PPARδ. The class given is cell-based. The following applies: mean, n ≥ 3.
Excerpt: as §2
HEK293T cells (ATCC, CRL-1573) were cultured in Dulbecco’s modified eagle medium (DMEM), high glucose, supplemented with 10% FCS, sodium pyruvate (1 mM), penicillin (100 U/mL), and streptomycin (100 µg/mL) to 70–80% confluence at 37 °C and 5% CO2 and seeded in clear 96-well plates with a density of 40,000 cells/well. After 24 h, the medium was changed to Opti-MEM without supplements. Transient transfection was performed using Lipofectamine LTX reagent (Invitrogen, Carlsbad, CA, USA) according to the manufacturer’s protocol with pFR-Luc (100 ng/well) as reporter plasmid, pRL-SV40 (2 ng/well) for normalization of transfection efficiency and cell growth, and one pFA-CMV-hNR-LBD clone coding for the hinge region and ligand binding domain (LBD) of the NR of interest. […] After overnight (14–16 h) incubation, luminescence was measured using the Dual-Glo® Luciferase Assay System (Promega, Madison, WI, USA) according to the manufacturer’s protocol with a Tecan Spark® 10 M multimode microplate reader. Relative light units (RLU) for normalization of transfection efficiency and cell growth were calculated by dividing firefly luminescence by renilla luminescence and multiplication by 1000. […]
A general note: Reporter assays use an easily measured gene product as a stand-in for the process of interest.

The test system of test [4] is PPARδ. On the set-up: method as in earlier work. The following applies: fine-tuning set; BindingDB; read-out: potency on target (EC50 for PPARδ); cited from earlier work.

The structures appear in SMILES notation. Entries after “also recorded” stand apart in the source; their conditions may differ.

These results are taken from PMC11390726, “Automated design of multi-target ligands by generative deep learning” (Nature Communications, 2024).

T3 sequence (O14842 whole entry): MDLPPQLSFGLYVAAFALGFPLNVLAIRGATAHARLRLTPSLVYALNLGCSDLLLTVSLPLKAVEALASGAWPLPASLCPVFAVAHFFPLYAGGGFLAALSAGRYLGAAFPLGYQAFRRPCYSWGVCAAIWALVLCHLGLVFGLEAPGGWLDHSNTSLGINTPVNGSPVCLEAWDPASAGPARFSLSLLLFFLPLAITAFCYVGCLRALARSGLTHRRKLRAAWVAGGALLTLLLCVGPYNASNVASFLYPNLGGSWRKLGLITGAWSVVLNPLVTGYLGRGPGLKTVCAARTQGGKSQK

Usually EC50 stands for the midpoint of the concentration-response curve. Turning to `O=C(O)Cc1cc(Cl)c(Oc2ccc(O)c(C(=O)NCC(c3ccccc3)c3ccccc3)c2)c(Cl)c1`, in the test on THRβ, the EC50 is 0.5 nM.

For `Cc1c(CC(=O)O)c2ccccc2n1Cc1ccc(O)c(C(C)C)c1`, the EC50 with THRβ was 150 nM.

Usually IC50 stands for the point on the concentration scale where inhibition reaches its midpoint. On to `CCCCc1cnc(C(=O)O)n1Cc1ccc(-c2ccccc2C)cc1`, for which the half-inhibitory concentration (IC50) on AT1 [1] was 3 nM.

As to `COc1ccc2c(c1OCc1ccccc1)CC(C(=O)O)N(C(=O)C(c1ccccc1)c1ccccc1)C2` (stereo not shown), the IC50 on AT1 [1] was 1000 nM.

Consider `CC(C)c1cc(Oc2c(Cl)cc(NC(=O)C(=O)O)cc2Cl)n[nH]c1=O`, for which the EC50 with THRβ is 120 nM.

On to `CCCCc1ncc(/C=C(\Cc2cccs2)C(=O)O)n1Cc1ccc(C(=O)O)cc1`, for which the 50% inhibitory concentration (IC50) on AT1 [1] was 2 nM.

Consider `O=C(O)c1ccc(OC2CCCN(C(=O)NCc3ccc(Cl)cc3Cl)CC2)cc1` (stereo not shown) [Compound 10], for which, at AT1 [2], the “AT1: activity” value is “inactive”. This molecule yielded a concentration for half-maximal inhibition (IC50) on sEH of 20 nM.

For `CCC(c1ccc(C(=O)O)cc1)c1cccc(NC(=O)Nc2ccc(OC(F)(F)F)cc2)c1` (stereo not shown) [Compound 11], on FFAR1, the “FFAR1: activity” value was “inactive”. Moreover, the IC50 against sEH is 61 nM.

With `CC(C)c1cc(Oc2c(Cl)cc(-n3nc(C#N)c(=O)[nH]c3=O)cc2Cl)nn(C)c1=O`, in the test with THRβ, the EC50 is 40 nM.

Regarding `CC(C)(C)c1ccc(NC(=O)N[C@H]2CC[C@H](Oc3ccc(CCC(=O)O)cc3)CC2)cc1` [Compound 7], it took 10000 nM to reach a half-maximal effect at PPARδ [3] (EC50). Also, on sEH, half-maximal inhibition (IC50) was put at 17 nM.

As for `CC#CC(CC(=O)O)c1ccc(OCc2cccc(-c3ccccc3C(=O)O)c2)cc1` (stereo not shown) [Compound 12], on AT1 [2], the “AT1: activity” value is “no effect; also recorded: inactive”. The same molecule came in with an EC50 on FFAR1 of 8500 nM.

`CCO[C@H](COc1ccc(C(F)(F)F)cc1)CSc1ccc(OCC(=O)O)c(C)c1`: the concentration giving a half-maximal response (EC50) with PPARδ [4] is 2 nM.

`CC(C)c1onc(-c2c(Cl)cccc2Cl)c1COc1ccc(CNc2ccc(CC(=O)O)cc2)c(Cl)c1`: the half-maximal effective concentration (EC50) in the test on PPARδ [4] is 2000 nM.

On to `O=C(O)CCc1ccc(OC2CCN(C(=O)NCc3c(Cl)cc(Cl)cc3Cl)CC2)cc1` [Compound 9], for which the “PPARδ: fold act. at 80 µM” value on PPARδ [3] was 3.0 fold. Further, the IC50 against sEH was found to be 270 nM.

`Cc1cc(SCc2sc(-c3ccc(C(F)(F)F)cc3)nc2C)ccc1OCC(=O)O`: the half-maximal effective concentration (EC50) in the test with PPARδ [4] was […].

`O=C(O)CCc1ccc(OC2CCCN(C(=O)NCc3c(Cl)cc(Cl)cc3Cl)CC2)cc1` (stereo not shown) [Compound 8]: the “PPARδ: fold act. at 80 µM” value at PPARδ [3] amounted to 6.7 fold. At sEH, this molecule had a half-inhibitory concentration (IC50) of 200 nM.
